# Measured values reported in patent publication US10441557B2, “Germicidal compositions comprising carboxylic acid mixture and use as topical disinfectants” (priority 2012, dated 2019).
# Assay: Freeze-thaw stability of concentrates
# Assay type: physicochemical
# Method: In this example, concentrates according to the present invention were prepared comprising various surfactants and the effect of those surfactants on the freeze-thaw stability of the samples was determined. The concentrates were prepared for an intended dilution ratio of 1 part concentrate to 39 parts water. Each formulation tested comprised 9.2 wt. % formic acid, 9.4 wt. % lactic acid, 23.2 wt. % sodium α-olefin sulfonate (SAOS), and 21 wt. % of the indicated surfactant, with water comprising the balance.
# The samples of each formulation were placed in bottles filled to 1.5 inches from the top of the bottles. The bottles containing the samples were placed in a freezer for one day, and removed from the freezer and thawed the subsequent day. The homogeneity of each sample upon thawing was noted. A formulation was considered acceptable if a homogeneous solution was observed upon thawing.
substance,measurement,value
Cocamidopropylbetaine,Physical Stability After 1 Freeze-Thaw Cycle,Non-homogeneous
